The values that follow come from paper PMC7440915, “Discovery of surrogate agonists for visceral fat Treg cells that modulate metabolic indices in vivo” (eLife, 2020).

In test [1] the test system is vTreg53 Treg cells. The experiment in a line: RNA-seq of transferred clonotype^+ Treg cells after immunization. The test is classed as in vivo, mouse. The source says: Figure 5. Transcriptional analyses of vTreg53 Treg cells stimulated by Fat1562 in vivo. (A–C) CD45.2^+ vTreg53 Treg cells were transferred i.v. into CD45.1^+ B6 mice. 6 weeks later, the recipient mice were immunized with CFA alone or CFA/Fat1562 s.c., and one week later, boosted with IFA alone or IFA/Fat1562 i.p. CD45.2^+ clonotype^+ Treg cells were sorted from Spl/LNs or VAT of the recipient mice one week later for RNA-Seq. (A) Volcano plot comparing gene expression of transferred clonotype^+ Treg cells in the VAT and Spl/LNs of recipient mice immunized with adjuvant alone (left) or with adjuvant/Fat1562 (right). VAT-Treg signature genes are highlighted in red (induced) or blue (repressed). The number of genes from each signature preferentially expressed by one or the other population are shown at the top. (B) GSEA analysis of top KEGG pathways (p<0.05) that are enriched in cells activated by adjuvant/Fat1562 compared with adjuvant alone in VAT (left) or Spl/LN (right). NES, normalized enrichment score. FDR, false discovery rate. (C) Normalized reads of Pparg transcript in CD45.2^+ clonotype^+ Treg cells sorted from mice immunized with adjuvant alone or adjuvant/Fat1562. Data are mean ± SD. (D) Volcano plot comparing gene expression of transferred clonotype^+ Treg cells in mice immunized with adjuvant/Fat1562 and adjuvant alone in the VAT (left) and spleen (right). Representative transcripts are highlighted.
6–8 week-old B6.CD45.1^+ mice were transferred with Tg^+ Treg cells from Spl/LNs, and six weeks later were primed with 200 μg CFA/peptides s.c. and boosted with 100 μg IFA/peptides i.p. as described in the ‘Treg transfer and peptide immunization’ section. Biological replicates (n ≥ 2) of 1000 clonotype^+ CD45.2^+ Treg cells from the Spl/LNs or VAT of recipient mice were double-sorted by Moflo directly into 5ɥl lysis buffer (TCL Buffer (Qiagen) with 1% 2-Mercaptoethanol), Smart-seq2 libraries were prepared as previously described ([Picelli et al., 2014]) with slight modifications. Briefly, total RNA was captured and purified on RNAClean XP beads (Beckman Coulter). Polyadenylated mRNA was then selected using an anchored oligo(dT) primer (5′–[…]30VN-3) and converted to cDNA via reverse transcription. First-strand cDNA was subjected to limited PCR amplification followed by Tn5 transposon-based fragmentation using the Nextera XT DNA Library Preparation Kit (Illumina). Samples were then PCR amplified for 18 cycles using barcoded primers such that each sample carried a specific combination of eight-base Illumina P5 and P7 barcodes and were pooled together prior to Smart sequencing. Smart-seq paired-end sequencing was performed on an Illumina NextSeq500 using 2 × 38 bp reads with no further trimming. Transcripts were quantified by the Broad Technology Labs computational pipeline with Cuffquant version 2.2.1 ([Trapnell et al., 2012]). Normalized reads were further filtered by minimal expression (>10) and coefficient of variation (<0.7), and then analyzed by Multiplot Studio in the GenePattern software package. Pathway enrichment analysis was done using GSEA.

In test [2] the test system is HFD-fed B6.CD45.1^+ mice. Description: Metabolic indices (ITT, GTT, fasting insulin, body weight) in HFD-fed mice after vTreg53 Treg transfer and immunization. The test is classed as in vivo, mouse. The conditions noted are these: n ≥ 7. The source says:
Figure 7. Immunization with Fat1562 following vTreg53 Treg transfer ameliorates HFD-induced insulin resistance. (A–F) Metabolic indices of mice treated as in Figure 6A (n ≥ 7). (A) Body weight. (B) Insulin tolerance test (ITT). (C) Area over curve for ITT analysis. (D) Glucose tolerance test (GTT). (E) Area under curve for GTT analysis. (F) Plasma insulin levels after 6 hr of fasting. Data shown are representative of at least two independent experiments. (G) Scheme of the anti-TNFα experiment. (H) Number of total Treg cells in VAT (n ≥ 5). (I) Number of CD11c^hi inflammatory macrophages in VAT (n ≥ 5). (J) ITT (n ≥ 5). (K) Area over curve for ITT analysis (n ≥ 5). Data are mean ± SD. Figure 7—figure supplement 1. Absolute blood glucose levels. ITT analysis of mice transferred with vTreg53 TCR-tg Tregs and immunized with adjuvant/Fat1562 or adjuvant alone. Data shown are representative of at least two independent experiments (n ≥ 5). [drawing 7]
To assess early Treg proliferation following peptide stimulation in vivo, 0.4 million Treg cells were sorted from pooled Spl and LNs of 6-8wk-old male CD45.2^+ Tg^+ Foxp3-GFP^KI/y mice by Moflo, labeled by the CellTrace Violet dye (ThermoFisher Scientific), and were i.v.-injected into 6-8wk old male B6.CD45.1^+ mice. The next day, the recipient mice were injected with 200 µg peptides emulsified in CFA (CFA/peptides) s.c. on the lower back. Proliferation of clonotype^+ Tregs in the spleen was determined three days later. To examine the expansion of VAT-Treg cells by peptide immunization, we sorted 0.4 million Treg cells from pooled Spl/LNs of 6-8wk-old male CD45.2^+ Tg^+ Foxp3-GFP^KI/y mice and transferred them i.v. into 6-8wk old male B6.CD45.1^+ mice. Six weeks later, the recipient mice were immunized with 200 µg CFA/peptides s.c. on the lower back, and one week later were boosted with 100 μg IFA/peptides i.p. After another week, clonotype^+ CD45.2^+ Treg cells from the Spl/LNs or VAT of recipient mice were analyzed by flow cytometry and double-sorted for ultra-low-input RNA-seq. […] One week after the IFA/peptides injection, metabolic parameters (GTT, ITT, fasting plasma insulin levels) and the composition of different immunocytes were determined.
For GTT, mice were fasted for 15 hr overnight, weighed, and tested for fasting blood-glucose concentrations. […] Blood-glucose levels were measured before and 20, 40, 60, 90, and 120 min after glucose injection. […] Blood-glucose levels were measured before and 20, 40, 60, 90, and 120 min after insulin injection, and were normalized to the blood-glucose levels before insulin injection. The area under the curve (for GTT) or area over the curve (for ITT) were calculated using GraphPad Prism 7.0.

“Also recorded” adds a separate entry of the source. Where no end group is shown, it is not given here.

For TMYKNPRPMAATG [Fat1562], in test [1] (Spl/LN vs Fat1562-stimulated VAT Treg cells), the “Pparg mRNA levels in Spl/LN relative to VAT” value is “substantially lower”. For the same sequence, in test [1] (Treg cells stimulated by Fat1562 in vivo (Spl/LN)), the “Pparg mRNA levels” value is reported as “significantly increased; also recorded: increase in Pparg mRNA levels”. In addition, the “Lag3 and Tigit expression” value in test [1] (VAT, adjuvant/Fat1562 vs adjuvant alone) is reported as “upregulated”. In addition, the “pathway enrichment in VAT Treg cells, GSEA” value in test [1] (VAT, adjuvant/Fat1562 vs adjuvant alone: cell division and glycolysis) was “significant enrichment in pathways and transcripts related to cell division (E2F targets, G2M checkpoint, MYC targets, Mitotic spindle) and glycolysis”. Further, the “VAT-Treg signature gene expression” value in test [1] (clonotype^+ VAT Treg cells, adjuvant/Fat1562) was “preserved the typical VAT-Treg characteristics; also recorded: maintained the typical VAT-Treg signature”. Further, the “cholesterol homeostasis genes” value in test [1] (lymphoid organs, adjuvant/Fat1562 vs adjuvant alone (e.g. Pparg, Nfil3, Srebf2)) is on record as “enrichment of genes involved in cholesterol homeostasis”. Moreover, the “inflammatory cytokine response genes” value in test [1] (lymphoid organs, adjuvant/Fat1562 vs adjuvant alone, IFNα, IFNγ, TNFα) is “increased expression of genes associated with responses to inflammatory cytokines (IFNα, IFNγ, and TNFα)”. In test [2] (GTT, 2.0 g glucose per kg i.p., 15 hr fast), the “glucose tolerance” value is recorded as “promoted glucose tolerance”. The “insulin sensitivity” value in test [2] (ITT, 0.6 U insulin per kg i.p., 6 hr fast) is listed as “improved systemic insulin sensitivity”. For the same sequence, the “body weight” value in test [2] (adjuvant/Fat1562 vs adjuvant alone) is “similar”. The “fasting plasma insulin levels” value in test [2] (after 6 hr of fasting) is reported as “reduced fasting plasma insulin levels”.
